Source: publication PMC11487632 (Molecular Pharmaceutics, 2024)
In brackets after ≈: the same amount, converted by molar mass. Where two headings read alike, the source gives them in different places.

Assays:
[1] = Co-dissolution procedure: apparent solubility of API mixtures with CFN, TPH, TBR or XAT (HPLC, Noyes-Whitney fit); type: physicochemical; conditions: for increase of XAT-derivative solubility by IBP and DCF (NSAIDs): equimolar IBP or DCF mixtures; for effect of codissolved CFN on API solubility / saturated concentration / effect of codissolved TBR on API dissolution curve / saturated concentration / effect of codissolved TPH on API solubility / saturated concentration / effect of codissolved XAT on API dissolution curve / saturated concentration: equimolar mixture
[2] = Pre-dissolution procedure: apparent solubility of pure APIs in buffer with predissolved XAT derivatives (HPLC, Noyes-Whitney fit); type: physicochemical; conditions: for effect of predissolved TPH on API solubility: 5-20 mM TPH in 100 mM phosphate buffer pH 6.8; for effect of predissolved CFN on API solubility: 10-50 mM CFN in 100 mM phosphate buffer pH 6.8; for solubility: phosphate buffer, 25 °C, pH 6.8, aqueous buffer, thermodynamic from solid, read-out: solubility (eq 1); for solubility / saturated concentration (curve fitting eq 1): 100 mM phosphate buffer pH 6.8, 298 K
Procedure: The sample solution was filtered with a membrane filter (Minisart RC 4 with 0.22 μm pore size; Sartorius, Göttingen, Germany). The fractionation of the API or XAT derivative in the filtrate was performed via HPLC (Shimadzu Co., Kyoto, Japan) using a mobile phase of 25 mM citric acid buffer (pH 3.0):methanol of 3:7 at a flow rate of 1 mL/min.
To assess the apparent solubility of pure APIs in solutions of XAT derivatives, “pre-dissolution procedures” were conducted. […] The API samples, adjusted to exceed saturation, were added to 5 mL of the dissolving medium and shaken in a water bath at 298 K for a specific duration. The concentration of API in the supernatant was measured using HPLC. The solubility concentrations of all APIs were determined from each API’s standard curves. The R-square values of all standard curves are over 0.995.
The dissolution process of the pure APIs or API mixtures assumably corresponded to a linear correlation or a saturation curve. The API samples were homogenized using an agate mortar and pestle to align the particle sizes without sieving, considering the potential contamination of superfine powders. The immediate dissolution of the adhering powders in the solution at t = 0 was assumed; additionally, their concentrations were treated as the initial concentration (C = C0) if a sink condition was applicable owing to the higher solubility of the API.
For curves resembling a saturation curve, nonlinear curve fitting using the Noyes–Whitney integral expression (eq 1) was applied:[48],[49] [drawing 1] 1 where Ceq is the apparent solubility of the API, k is the dissolution rate constant, and S is the surface area of the sample particles. […] Curve-fitting procedures employed the Solver module of Microsoft Excel 2016 with the implemented GRG nonlinear option. The recrystallized precipitates were verified by X-ray powder diffraction (XRPD) and differential scanning calorimetry (DSC); no cocrystals or other generated solids were observed.

[3] = set-up: method as in previous study; conditions: ref previous study, cited from earlier work; for solubility during the predissolution procedure: presence or absence of cimetidine (CIM) in solution insignificant; for solubility during the codissolution procedure: simultaneous addition of CIM crystal powder
[4] = ref 18 (given for CFN and TPH only); cited from earlier work
[5] = ref 18 (given for CFN and TPH only); cited from earlier work; remark: listed apart in the source
[6] = ref 18 (not printed for TBR and XAT); cited from earlier work
[7] = cited from earlier work
[8] = cited from earlier work; remark: listed apart in the source

For `O=c1[nH]c(=O)c2[nH]cnc2[nH]1` [XAT, xanthine], the “increase of XAT-derivative solubility by IBP and DCF (NSAIDs)” value [1] was 2 fold.
In the case of `COc1ccc2c(c1)c(CC(=O)O)c(C)n2C(=O)c1ccc(Cl)cc1` [INM, indomethacin], the “effect of CFN added to the dissolving medium on solubility” value ([2]; data not published) is given as “enhanced”, the “solubility during the predissolution procedure” value [3] is given as 625 µM (≈ 224 µg/mL) and the “solubility during the codissolution procedure” value [3] is given as 3340 µM (≈ 1200 µg/mL).
In the case of `Cn1cnc2c1c(=O)[nH]c(=O)n2C` [TBR, theobromine], the water solubility [4] is given as 2000 µM (≈ 360 µg/mL), the “log P” value [5] is given as −0.78 and the solubility ([1]; 25 °C, aqueous buffer, thermodynamic from solid, pure, 100 mM phosphate buffer pH 6.8, read-out: solubility of the pure XAT derivative) is given as 1000 µM (≈ 180 µg/mL). For the same compound, the “increase of XAT-derivative solubility by IBP and DCF (NSAIDs)” value [1] was 3 fold and the pKa [6] was 10.05.
With `O=C(O)Cc1ccccc1Nc1c(Cl)cccc1Cl` [DCF, diclofenac] the “effect of predissolved TPH on API solubility” value [2] was “enhanced”, the “effect of predissolved CFN on API solubility” value [2] was “enhanced” and the solubility ([2]; in the absence of CFN (CFN series)) was 1760 ± 44 µM (≈ 521 µg/mL). For the same compound, the solubility ([2]; in the absence of TPH (TPH series)) was 1690 ± 53 µM (≈ 499 µg/mL), the “effect of famotidine (FAM) on final solubility” value ([3]; equilibrated solution, FAM delayed dissolution) was “not affected” and the “solubility during the predissolution procedure” value [3] was 829 µM (≈ 246 µg/mL). The “solubility during the codissolution procedure” value [3] was 3390 µM (≈ 1000 µg/mL), the “effect of codissolved CFN on API solubility / saturated concentration” value ([1]; 100 mM phosphate buffer pH 6.8) was “increased” and the “effect of codissolved TBR on API dissolution curve / saturated concentration” value ([1]; 100 mM phosphate buffer pH 6.8) was “did not significantly differ”. For the same compound, the “effect of codissolved TPH on API solubility / saturated concentration” value ([1]; 100 mM phosphate buffer pH 6.8) was “increased”, the “effect of codissolved XAT on API dissolution curve / saturated concentration” value ([1]; 100 mM phosphate buffer pH 6.8) was “did not significantly differ” and the solubility ([7]; 50 mM MES buffer (pH 5.5)) was about 100 µM (≈ 29.6 µg/mL). The solubility ([7]; 100 mM phosphate buffer (pH 6.45)) was “approximately 0.7 mM” and the “change of solubility on addition of 10 mM LDC to the dissolution buffer” value ([7]; within the buffering capacity range) was “increased”.
In the case of `Cn1c(=O)c2c(ncn2C)n(C)c1=O` [CFN, caffeine], the “distribution volume Vd” value ([8]; CFN) is listed as 0.7 L/kg.
With `CC(C)Cc1ccc([C@H](C)C(=O)O)cc1` [IBP, (S)-(+)-ibuprofen] the “effect of predissolved TPH on API solubility” value [2] was “did not influence”, the “effect of predissolved CFN on API solubility” value [2] was “did not influence” and the “saturated concentration (curve fitting eq 1)” value ([2]; predissolved CFN series, irrespective of CFN) was 17.22 ± 0.61 mM. The “saturated concentration (curve fitting eq 1)” value ([2]; predissolved TPH series, irrespective of TPH) was 17.34 ± 0.86 mM, the “effect of codissolved CFN on API solubility / saturated concentration” value ([1]; 100 mM phosphate buffer pH 6.8) was “decreased” and the “effect of codissolved TBR on API dissolution curve / saturated concentration” value ([1]; 100 mM phosphate buffer pH 6.8) was “did not significantly affect”. For the same compound, the “effect of codissolved TPH on API solubility / saturated concentration” value ([1]; 100 mM phosphate buffer pH 6.8) was “decreased”, the “effect of codissolved XAT on API dissolution curve / saturated concentration” value ([1]; 100 mM phosphate buffer pH 6.8) was “did not significantly affect” and the solubility ([7]; 25 mM phosphate buffer (pH 6.88)) was about 20000 µM (≈ 4130 µg/mL). For the same compound, the solubility ([7]; 100 mM phosphate buffer (pH 7.18)) was “approximately 40 mM” and the “change of solubility in mixtures with lidocaine (LDC)” value ([7]; mixtures with LDC, without pH fluctuations) was “reduced”.
In the case of `Cn1c(=O)c2[nH]cnc2n(C)c1=O` [TPH, theophylline], the water solubility [4] is given as 40000 µM (≈ 7210 µg/mL), the “log P” value [5] is given as 0.00 and the “distribution volume Vd” value ([8]; TPH, no reference given) is given as 0.5 L/kg. For the same compound, the “therapeutic range in the blood” value ([8]; narrow therapeutic range) was 0.06 to 0.11 mmol/L and the “effect of IBP on saturation concentration of the XAT derivative” value ([1]; equimolar mixtures with IBP, effect of DCF greater than that of IBP) was “increased”.
